{
  "source": "patent US20240277708A1",
  "about": "“Use of [1,2,4] Triazolo [4,3-B] Pyridazine Derivative For Preventing and Treating Senescence and Senescence-Related Diseases” (The Eighth Affiliated Hospital, Sun Yat-Sen University, priority 2023, published 2024)",
  "key": {"[1]": {"system": "BJ cells", "experiment": "VP16-induced cellular senescence, SA-β-gal staining, BJ cells", "assay_type": "cell-based, Human", "conditions": "C1632 120 μM, VP16 40 μM for 4-7 days, FIG. 1A, 1B", "method": "MRC5 and BJ cells were cultured in DMEM low-glucose medium containing 10% FBS. The cells were passaged or plated at a ratio of 1:3.0.5×10^5 cells were plated in 12-well plates and in the next day treated with VP16 at a final concentration of 40 μM for 4-7 days to induce cellular senescence. A cellular senescence model was constructed. While inducing cellular senescence, C1632 with a final concentration of 120 μM is added. The effect of C1632 on the senescence of BJ and MRC5 cells was detected by SA-β-gal staining, and the effect of C1632 on cellular senescence was studied."}, "[2]": {"system": "C57BL/6 mice", "experiment": "Safety profile in IPF model and control mice: body weight and routine blood test", "assay_type": "in vivo", "method": "In order to test the safety profile of C1632, the IPF model C57BL/6 mice and the control mice were intraperitoneally injected with 68 mg/kg C1632 three times a week and weighed, respectively. At the end of the experiment, the whole blood was a collected for routine blood test. […] In addition, the routine blood test results of mice in each group are mostly within the reference interval."}, "[3]": {"system": "CKD mice (C57BL/6 male)", "experiment": "Purine (AP) feed-induced chronic kidney disease (CKD) mouse model", "assay_type": "in vivo", "conditions": "68 mg/kg twice a week", "source_text": "The protocol for constructing a chronic kidney disease (CKD) mouse model in this example was as follows: 8-week-old C57BL/6 male mice were fed with a feed containing 2‰ purine for 1 month, then, fed with a feedcontaining 1.5‰ purine for 3 months. There were at least 10 mice in each group.\nThe mice were divided into three groups: (1) normal group; (2) AP+Saline group; (3) AP+C1632 group, 10 mice in each group. The CKD mice in group (3) were fed with a feed containing 2‰ AP for 1 month and then treated with C1632. C1632 was administered twice a week at a dose of 68 mg/kg of body weight each time.\nThe mice were divided into three groups: (1) normal group; (2) AP+saline group; (3) AP+C1632 group, 10 mice in each group. The CKD mice in group […] were fed with a feed containing 2‰ AP for 1 month and then treated with C1632. C1632 was administered twice a week at a dose of 68 mg/kg of body weight each time. During the subsequent 83 days of treatment, the survival of the mice was counted.\nThe mice were divided into three groups: (1) normal group; (2) AP+saline group; (3) AP+C1632 group, 10 mice in each group. The CKD mice in group (2) and group (3) were fed with a feed containing 2‰ AP for 1 month and then treated with C1632. C1632 was administered twice a week at a dose of 68 mg/kg of body weight each time. After 3 months, the mice were sacrificed, and the kidneys were removed for Masson staining."}, "[4]": {"system": "C57BL/c mice, VD3-induced vascular calcification", "experiment": "VD3-induced aortic vascular calcification mouse model, alizarin red staining", "assay_type": "in vivo", "conditions": "VD3 500 IU/g/day for 2 days, C1632 68 mg/kg twice a week, after 6 days; FIG. 15", "method": "C57BL/c mice were intraperitoneally injected with VD3 at a dose of 500 IU/g/day for 2 consecutive days, and then divided into: (1) Saline group; (3) C1632 group, 10 mice in each group. C1632 was administered twice a week, and CKD mice were treated with C1632 at a dose of 68 mg/kg of body weight each time. After 6 days, the mice were sacrificed, and the aortic blood vessels were dissected for alizarin red staining and hydroxyapatite staining."}, "[5]": {"conditions": "normal mice, 68 mg/kg i.p. three times a week"}},
  "data": [
    {"smiles": "CC(=O)N(C)c1cccc(-c2ccc3nnc(C)n3n2)c1", "note": "[C1632]", "values": [
      {"measurement": "VP16-induced senescence (β-gal-positive cell rate) in BJ cells", "setting": "[1]", "result": "inhibits VP16-induced senescence"},
      {"measurement": "Routine blood tests overall", "setting": "[2]; IPF mice, 68 mg/kg i.p. three times a week, FIG. 11B to 11S", "result": "does not cause deterioration"},
      {"measurement": "Body weight compared with the corresponding saline group", "setting": "[2]; IPF model and control mice, 68 mg/kg intraperitoneally three times a week, FIG. 11A", "result": "does not significantly change the body weight"},
      {"measurement": "Mean platelet volume (MPV), model group", "setting": "[2]; IPF model mice, 68 mg/kg i.p. three times a week", "result": "no significant effect"},
      {"measurement": "PDW, fibrotic mice", "setting": "[2]; fibrotic (IPF) mice, 68 mg/kg i.p. three times a week", "result": "no significant effect"},
      {"measurement": "Mean platelet volume (MPV), normal mice", "setting": "[2]; [5]", "result": "significantly increase"},
      {"measurement": "PDW, normal mice", "setting": "[2]; [5]", "result": "significantly inhibits"},
      {"measurement": "Mortality of CKD model mice", "setting": "[3]; 83 days of treatment, FIG. 13", "result": "significantly reduces the mortality"},
      {"measurement": "Collagen fibers in the kidney, Masson staining (kidney fibrosis)", "setting": "[3]; after 3 months, FIG. 14", "result": "significantly inhibits the level of collagen fibers"},
      {"measurement": "Weight loss in CKD mice", "setting": "[3]; vs control (saline) mice, FIG. 12", "result": "significantly inhibits weight loss"},
      {"measurement": "Aortic vascular calcification, alizarin red staining", "setting": "[4]", "result": "significantly inhibits the progression of aortic vascular calcification"}
    ]}
  ]
}
